{"source": "patent US4707475A", "about": "“Agent for lowering serum prolactin levels” (priority 1985, dated 1987)", "key": {"[1]": {"test_system": "DA-receptors", "conditions": "cited from earlier work; for action as DA agonist: Gudelsky et al."}, "[2]": {"test_system": "prolactin", "conditions": "Gudelsky 1983; cited from earlier work"}, "[3]": {"test_system": "dopamine autoreceptors (DA-autoreceptors)", "conditions": "cited from earlier work; for selectivity as DA-autoreceptor agonist: compared with B-HT 920, literature"}, "[4]": {"test_system": "endogenous dopamine synthesis in the brain", "conditions": "in vivo, Anden et al. 1983; cited from earlier work"}, "[5]": {"test_system": "prolactin level", "assay": "Prolactin level in blood of 6 healthy male subjects after 150 μg B-HT 920 (PROLRIA-100 radioimmunological method)", "format": "in vivo, healthy male subjects (human)", "parameters": "unit not given here", "experimental": "The compound B-HT 920 is tested for its effect on PRL-reduction as follows. The tests are carried out with 6 healthy male subjects ranging in age from 24 to 34, each subject being given 150 μg of B-HT 920. Blood samples are taken from each subject at intervals of 0, 1, 2, 3 and 5 hours. The prolactin level in the sample is determined by the known PROLRIA-100 radioimmunological method of the National Insitute of the Radioelements, 6220 Fleurs, Belgium. The following table contains the results found for each subject at the 1 hour intervals shown."}, "[6]": {"assay": "Tolerability (general statement)", "conditions": "in vivo"}, "[7]": {"test_system": "prolactin (PRL)", "assay": "Lowering of blood and serum levels of prolactin (general statement)", "conditions": "in vivo"}}, "data": [{"smiles": "CCCN1CCCC(c2cccc(O)c2)C1", "note": "(stereo not shown) [3-PPP]", "values": [{"measurement": "action as DA agonist", "setting": "[1]", "value": "act preferentially as DA agonists"}, {"measurement": "prolactin inhibiting activity", "setting": "[2]", "value": "prolactin inhibiting activity"}, {"measurement": "selectivity as DA-autoreceptor agonist", "setting": "[3]", "value": "not selectively active as DA-autoreceptor agonists"}]}, {"smiles": "C=CCN1CCc2nc(N)sc2CC1.Cl.Cl", "note": "[B-HT 920, 6-allyl-2-amino-5,6,7,8-tetrahydro-4H-thiazolo-[4,5-d]azepine dihydrochloride]", "values": [{"measurement": "effect on endogenous dopamine synthesis", "setting": "[4]", "value": "inhibits endogenous dopamine synthesis in the brain"}, {"measurement": "effect on dopamine autoreceptors", "setting": "[3]; Anden et al. 1982", "value": "selective agonistic effect on dopamine autoreceptors"}, {"measurement": "prolactin level", "setting": "[5]; subject 1, 1 hour", "value": 2.56}, {"measurement": "prolactin level", "setting": "[5]; subject 1, 2 hours", "value": 0.52}, {"measurement": "prolactin level", "setting": "[5]; subject 1, 3 hours", "value": 2.52}, {"measurement": "prolactin level", "setting": "[5]; subject 1, 5 hours", "value": 3.26}, {"measurement": "prolactin level", "setting": "[5]; subject 1, time 0", "value": 3.33}, {"measurement": "prolactin level", "setting": "[5]; subject 2, 1 hour", "value": 2.85}, {"measurement": "prolactin level", "setting": "[5]; subject 2, 2 hours", "value": 0.69}, {"measurement": "prolactin level", "setting": "[5]; subject 2, 3 hours", "value": 0.52}, {"measurement": "prolactin level", "setting": "[5]; subject 2, 5 hours", "value": 2.25}, {"measurement": "prolactin level", "setting": "[5]; subject 2, time 0", "value": 3.86}, {"measurement": "prolactin level", "setting": "[5]; subject 3, 1 hour", "value": 4.15}, {"measurement": "prolactin level", "setting": "[5]; subject 3, 2 hours", "value": 4.92}, {"measurement": "prolactin level", "setting": "[5]; subject 3, 5 hours", "value": 1.85}, {"measurement": "prolactin level", "setting": "[5]; subject 3, time 0", "value": 4.22}, {"measurement": "prolactin level", "setting": "[5]; subject 4, 1 hour", "value": 4.52}, {"measurement": "prolactin level", "setting": "[5]; subject 4, 2 hours", "value": 7.89}, {"measurement": "prolactin level", "setting": "[5]; subject 4, 5 hours", "value": 4.11}, {"measurement": "prolactin level", "setting": "[5]; subject 4, time 0", "value": 5.04}, {"measurement": "prolactin level", "setting": "[5]; subject 5, 1 hour", "value": 7.19}, {"measurement": "prolactin level", "setting": "[5]; subject 5, 2 hours", "value": 1.37}, {"measurement": "prolactin level", "setting": "[5]; subject 5, 3 hours", "value": 3.43}, {"measurement": "prolactin level", "setting": "[5]; subject 5, 5 hours", "value": 2.89}, {"measurement": "prolactin level", "setting": "[5]; subject 5, time 0", "value": 5.00}, {"measurement": "prolactin level", "setting": "[5]; subject 6, 1 hour", "value": 7.59}, {"measurement": "prolactin level", "setting": "[5]; subject 6, 2 hours", "value": 1.57}, {"measurement": "prolactin level", "setting": "[5]; subject 6, 5 hours", "value": 4.33}, {"measurement": "prolactin level", "setting": "[5]; subject 6, time 0", "value": 6.59}]}, {"smiles": "CN(C)C1CCc2cc(O)c(O)cc2C1", "note": "(stereo not shown) [TL-99]", "values": [{"measurement": "action as DA agonist", "setting": "[1]", "value": "act preferentially as DA agonists"}, {"measurement": "postsynaptic activity", "setting": "[1]; effect on the DA-receptors, Pastor et al. 1983", "value": "possibly has a postsynaptic activity"}, {"measurement": "prolactin inhibiting activity", "setting": "[2]", "value": "prolactin inhibiting activity"}, {"measurement": "selectivity as DA-autoreceptor agonist", "setting": "[3]", "value": "not selectively active as DA-autoreceptor agonists"}]}, {"smiles": "CN1CCc2cccc3c2[C@H]1Cc1ccc(O)c(O)c1-3", "note": "[apomorphine]", "values": [{"measurement": "action on DA-receptors and DA-autoreceptors", "setting": "[1]; well known", "value": "acts both on DA-receptors and also on DA-autoreceptors"}, {"measurement": "selectivity as DA-autoreceptor agonist", "setting": "[3]", "value": "not selectively active as DA-autoreceptor agonists"}]}, {"smiles": "C=CCN1CCc2nc(N)sc2CC1", "note": "[compound A, 6-allyl-2-amino-5,6,7,8-tetrahydro-4H-thiazolo-[4,5-d]azepine]", "values": [{"measurement": "tolerability", "setting": "[6]", "value": "well tolerated"}, {"measurement": "effect on blood and serum levels of prolactin (PRL)", "setting": "[7]", "value": "lower the blood and serum levels of prolactin (PRL)"}]}]}
